Test results published in patent US20250262191A1, “NEW CRYSTAL FORM OF NITROGEN-CONTAINING TRICYCLIC COMPOUND AND USE THEREOF” (SUNSHINE LAKE PHARMA CO., LTD., priority 2021, published 2025).

Key:
[1] = Pharmacokinetic experiment in Beagle dogs, oral capsules; format: in vivo; conditions: male Beagle dogs, 5 mg/kg
Experimental: The crystal form H of the compound having Formula (I) was filled into capsules, which were used for oral administration.
Three male Beagle dogs weighing 8-12 kg were orally administered with capsules containing the test sample at a dose of 5 mg/kg, and blood samples were taken at time points of 0.25 h, 0.5 h, 1.0 h, 2.0 h, 4.0 h, 6.0 h, 8.0 h and 24 h. Standard curve was plotted based on concentrations of the samples in a suitable range, the concentration of the test sample in the plasma sample was measured and quantified by AB SCIEX API4000 LC-MS/MS at MRM mode. Pharmacokinetic parameters were calculated according to drug concentration-time curve using a noncompartmental method by WinNonLin 6.3 software.

[2] = Stability experiment (high-temperature, high-humidity and photostability tests); format: physicochemical
Experimental: (§1) (1) High-temperature test: A batch of the test sample was taken into a flat weighing bottle, divided into ≤5 mm thick thin layer. The sample was placed at 60° C. for 30 days. The sample was then sampled at day 5, day 13 and day 30, and the change of the sample's color was observed. The purity of the sample was detected by HPLC.
as §1, with “(2) High-humidity” for “(1) High-temperature”, “25° C., RH 90%±5%” for “60° C.”
as §1, with “(3) Photostability” for “(1) High-temperature”, “placed in an opened light box (with UV)” for “placed”, “the illuminance […], UV light ≥0.7 w/m^2” for “60° C.”

[3] = Hygroscopicity experiment by dynamic moisture adsorption (DVS); format: physicochemical; conditions: relative humidity of 80%, 25° C.
Experimental: The hygroscopicity of the present invention is measured using the DVS INT-Std dynamic moisture and gas adsorption analyzer of the Surface Measurement Systems Company in UK. The humidity test range was 0%-95%, the air flow was 200 mL/min, the temperature was 25° C., test point: take one test point per […] 5% humidity.
An appropriate amount of the test sample was taken and the hygroscopicity of the test sample was tested by dynamic moisture adsorption device. The description of the hygroscopic characteristics and the definition of the hygroscopic weight gain (Appendix 9103 of Chinese Pharmacopoeia 2020 Edition, Guidelines for Drug Hygroscopicity Tests, experimental conditions: 25° C.±1° C., 80%±2% relative humidity) are described in the table below: […]

[4] = High-humidity 25° C., RH 90%±5%, day 5
[5] = High-humidity 25° C., RH 90%±5%, day 13
[6] = High-humidity 25° C., RH 90%±5%, day 30
[7] = High-temperature 60° C., day 13
[8] = High-temperature 60° C., day 30
[9] = Lighting (light box with UV), day 5
[10] = Lighting (light box with UV), day 13
[11] = Lighting (light box with UV), day 30

- AUC(0-t) ([1]; dog, plasma): 1130 ng·h/mL
- Cmax ([1]; dog, plasma): 514 ng/mL
- Tmax ([1]; dog, plasma): 1.33 h
- exposure in Beagle dogs [1]: relatively large exposure
- Appearance [2, 4]: White
- Purity (HPLC) [2, 4]: 99.89%
- Appearance [2, 5]: White
- Purity (HPLC) [2, 5]: 99.92%
- Appearance [2, 6]: White
- Purity (HPLC) [2, 6]: 99.85%
- Appearance ([2]; High-temperature 60° C., day 5): White
- Purity (HPLC) ([2]; High-temperature 60° C., day 5): 99.89%
- Appearance [2, 7]: White
- Purity (HPLC) [2, 7]: 99.72%
- Appearance [2, 8]: White
- Purity (HPLC) [2, 8]: 99.86%
- Appearance [2, 9]: White
- Purity (HPLC) [2, 9]: 99.90%
- Appearance [2, 10]: White
- Purity (HPLC) [2, 10]: 99.91%
- Appearance [2, 11]: White
- Purity (HPLC) [2, 11]: 99.72%
- Appearance ([2]; day 0): White
- Purity (HPLC) ([2]; day 0): 99.83%
- crystal structure stability ([2]; high temperature conditions): remains basically unchanged
- crystal structure stability ([2]; high temperature, high humidity and/or lighting conditions): remains basically unchanged
- changes in the appearance and chemical purity ([2]; high-temperature, high-humidity and/or lighting): no obvious changes
- hygroscopic characteristics [3]: lightly hygroscopic
Compound: O=C(O)c1ccc2c(c1)Oc1ccc(OCc3c(-c4c(Cl)cccc4Cl)noc3C3CC3)nc1C1(CC1)C2 [Crystal form H, 2-((5-cyclopropyl-3-(2,6-dichlorophenyl)isoxazol-4-yl)methoxy)-10H-spiro[benzo[6,7]oxepino[3,2-b]pyridine-11,1′-cyclopropane]-7-carboxylic acid]
